Assay results from US20130116277A1, “ALDO-KETO REDUCTASE SUBFAMILY 1C3 (AKR1C3) INHIBITORS” (priority 2007, published 2013).
Values joined by “and” are separate entries in the source; they are usually repeats but may differ in a detail not shown here. Equal values may be shown once. Read-outs that look alike come from different tables or passages of the source.

Assays:
AKR1C3 [1] = target: T1, AKR1C3 (Homo sapiens, UniProt P42330); assay: cell-based
T1 sequence (P42330 1-323): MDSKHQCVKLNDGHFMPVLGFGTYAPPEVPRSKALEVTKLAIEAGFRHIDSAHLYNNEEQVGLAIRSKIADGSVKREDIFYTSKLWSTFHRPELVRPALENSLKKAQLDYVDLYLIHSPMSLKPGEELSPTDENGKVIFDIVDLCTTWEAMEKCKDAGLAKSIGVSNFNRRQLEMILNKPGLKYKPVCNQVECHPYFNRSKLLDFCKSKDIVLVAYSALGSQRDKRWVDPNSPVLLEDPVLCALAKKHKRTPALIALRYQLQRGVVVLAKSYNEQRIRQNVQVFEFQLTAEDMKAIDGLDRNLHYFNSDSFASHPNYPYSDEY

ER-β = ER-β (Homo sapiens, UniProt Q92731); assay: ER-β ligand binding domain competitive binding with [3H]Estradiol
AKR1C3 [2] = target: T1, AKR1C3; assay: Purified AKR1C3 enzyme assay, [14C]-A'dione to testosterone, TLC based; format: biochemical; parameters: GST (N); made in house; host or cells: bacterial culture, IPTG induced (E. coli BL21-DE3 is named only for the crystallography preparation)
Method: Perkin Elmer; […] American Radiolabeled Chemicals, St. Louis, Mo.). The reaction was stopped by the addition of 400 μl ethyl acetate, vortexed, and spun for […] at 2000 rpm. The upper layer was transferred to a new tube and air dried. The pellet was resuspended in 25 μl of methanol, spotted on TLC plates and fractionated in TLC chamber with 3:1 chloroform:ethyl acetate. Once the mobile phase reached the top, the plates were dried and exposed to a phosphoimager screen overnight. […] Perkin Elmer) was incubated at 37° C. for 60 min. The reaction was stopped by the addition of 400 μl ethyl acetate, vortexed, and spun for […] at 2000 rpm. The upper layer was transferred to a new tube and air dried. The pellet was resuspended in 25 μl of methanol, spotted on TLC plates and fractionated in TLC chamber with 3:1 chloroform:ethyl acetate. Once the mobile phase reached the top, the plates were dried and exposed to a phosphoimager screen overnight.

[3] = Liver microsome incubation (HLM Phase I and Phase I + II), LC-MS/MS; format: in vitro ADME, human; settings: for microsomal CLint: human, human liver microsomes
Method: Stock solutions of prespective AKR1C3 inhibitors were prepared in DMSO at 5 mM and were incubated with liver microsomes (0.1 mg/mL). Incubations were conducted at 37° C. in a shaking water bath for 10 minutes (microsomes). Incubation durations were selected based on time course study (microsomes) or published literature (recombinant enzymes). Prepared samples were analyzed using LC-MS/MS.

ER-beta = target: T2, ER-beta (Homo sapiens, UniProt Q92731); assay: ER-beta transactivation (ERE-LUC luciferase) in HEK-293 cells; format: cell-based; settings: for EC50: drug alone, read-out: Agonist ER-β; for IC50 / Antagonist ER-β, % of E2: antagonist mode; for IC50: in combination with estradiol, read-out: Antagonist ER-β;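 on all read-outs here: HEK-293 cells transiently transfected with an ER-β expression plasmid and ERE-LUC reporter, firefly luciferase read-out normalized to co-transfected Renilla luciferase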
T2 construct: expressed in transfected cells; host or cells: HEK-293

ER-alpha = target: T3, ER-alpha (Homo sapiens, UniProt P03372); assay: ER-alpha transactivation (ERE-LUC luciferase) in HEK-293 cells; format: cell-based; settings: for EC50 / Agonist ER-α, % of E2: agonist mode; for EC50: drug alone, read-out: Agonist ER-α; for IC50: in combination with estradiol, read-out: Antagonist ER-α;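 on all read-outs here: HEK-293 cells co-transfected with an ER-alpha expression plasmid, an ERE-driven firefly luciferase reporter and a CMV Renilla control, with the firefly signal normalized to Renilla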
T3 construct: expressed in transfected cells; host or cells: HEK-293
T3 sequence (P03372 1-595): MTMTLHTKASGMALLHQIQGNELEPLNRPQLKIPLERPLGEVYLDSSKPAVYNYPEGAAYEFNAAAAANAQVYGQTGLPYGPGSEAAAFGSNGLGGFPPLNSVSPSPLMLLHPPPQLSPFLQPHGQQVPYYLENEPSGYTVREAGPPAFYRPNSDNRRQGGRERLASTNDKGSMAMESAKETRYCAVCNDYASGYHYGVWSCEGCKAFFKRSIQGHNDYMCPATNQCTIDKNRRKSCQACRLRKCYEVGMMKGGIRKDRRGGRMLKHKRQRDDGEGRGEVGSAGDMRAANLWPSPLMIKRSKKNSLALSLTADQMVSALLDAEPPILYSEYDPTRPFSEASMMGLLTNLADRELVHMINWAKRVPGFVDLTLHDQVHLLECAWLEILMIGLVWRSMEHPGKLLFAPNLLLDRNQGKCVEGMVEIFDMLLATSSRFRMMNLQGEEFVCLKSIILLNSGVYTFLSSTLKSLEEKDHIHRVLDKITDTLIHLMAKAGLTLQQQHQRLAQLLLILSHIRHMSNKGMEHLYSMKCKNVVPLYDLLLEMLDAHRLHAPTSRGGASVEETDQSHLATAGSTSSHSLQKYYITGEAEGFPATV

[4] = read-out: % inhibition from control HSD-5 (10 uM)
[5] = HLM Phase I + II, read-out: HLM Phase I + II CLint
[6] = HLM Phase I, read-out: HLM Phase I CLint
[7] = 10 μM inhibitor, purified AKR1C3 TLC based enzyme assay, read-out: AKR1C3 inhibition at 10 μM

Chain of ER-β (Q92731 264-498 limits assumed, species assumed): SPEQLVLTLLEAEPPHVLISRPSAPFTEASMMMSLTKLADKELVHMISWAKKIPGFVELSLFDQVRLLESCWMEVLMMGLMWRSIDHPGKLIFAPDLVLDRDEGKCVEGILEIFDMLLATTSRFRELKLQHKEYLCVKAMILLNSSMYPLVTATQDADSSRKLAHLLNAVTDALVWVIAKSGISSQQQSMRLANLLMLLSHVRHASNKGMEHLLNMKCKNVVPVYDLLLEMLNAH
T2 sequence (Q92731 whole entry, species assumed): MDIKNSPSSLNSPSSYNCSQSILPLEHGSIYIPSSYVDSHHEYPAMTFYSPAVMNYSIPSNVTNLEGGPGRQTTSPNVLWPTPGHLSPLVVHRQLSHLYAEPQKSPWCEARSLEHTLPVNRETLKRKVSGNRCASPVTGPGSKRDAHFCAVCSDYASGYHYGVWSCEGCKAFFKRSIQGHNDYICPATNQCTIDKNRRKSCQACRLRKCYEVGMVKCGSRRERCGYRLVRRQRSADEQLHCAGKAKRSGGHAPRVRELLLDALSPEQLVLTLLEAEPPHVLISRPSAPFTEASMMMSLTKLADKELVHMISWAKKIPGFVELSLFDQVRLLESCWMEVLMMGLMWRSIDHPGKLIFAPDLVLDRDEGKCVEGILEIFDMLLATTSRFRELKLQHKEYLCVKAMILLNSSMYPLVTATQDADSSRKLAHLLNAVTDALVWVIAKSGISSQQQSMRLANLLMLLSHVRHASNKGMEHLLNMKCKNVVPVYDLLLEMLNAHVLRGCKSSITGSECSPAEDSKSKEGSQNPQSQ

Row | IC50 (AKR1C3 [1]) | inhibition at 10 µM (AKR1C3 [2]; [4]) | EC50 (ER-beta; agonist mode) | inhibition at 10 µM (AKR1C3 [2]; [7]) | SMILES | further results
1 | – | 10% | – | 10% | N#Cc1cc(O)cc2c(-c3ccc(C(F)(F)F)c(F)c3)cn(-c3ccc(O)cc3)c(=O)c12 [Compound 102, 4-(3-Fluoro-4-(trifluoromethyl)phenyl)-6-hydroxy-2-(4-hydroxyphenyl)-1-oxo-1,2-dihydroisoquinoline-8-carbonitrile] | –
2 | – | 0% | – | 0% | COC(=N)c1cc(O)cc2c(-c3ccc(C(F)(F)F)c(F)c3)cn(-c3ccc(O)cc3)c(=O)c12 [Compound 102A, Methyl 4-(3-fluoro-4-(trifluoromethyl)phenyl)-6-hydroxy-2-(4-hydroxyphenyl)-1-oxo-1,2-dihydroisoquinoline-8-carbimidate] | –
3 | – | 0% | – | 0% | NC(=O)c1cc(O)cc2c(-c3ccc(C(F)(F)F)c(F)c3)cn(-c3ccc(O)cc3)c(=O)c12 [Compound 102B, 4-(3-fluoro-4-(trifluoromethyl)phenyl)-6-hydroxy-2-(4-hydroxyphenyl)-1-oxo-1,2-dihydroisoquinoline-8-carboxamide] | –
4 | – | 5% | – | – | COC(=O)c1ccc(-n2ccc3cc(O)ccc3c2=O)cc1CBr [Compound 104A, methyl 2-(bromomethyl)-4-(6-hydroxy-1-oxoisoquinolin-2(1H)-yl)benzoate] | –
5 | 0.241 µM | – | – | – | NC(=O)c1cccc(-n2cc(-c3ccc(C(F)(F)F)c(F)c3)c3cc(O)ccc3c2=O)c1 [Compound 214, 3-(4-(3-fluoro-4-(trifluoromethyl)phenyl)-6-hydroxy-1-oxoisoquinolin-2(1H)-yl)benzamide] | –
6 | 0.154 µM | – | – | – | O=C(O)c1cccc(Nc2ccc(C(F)(F)F)cc2)c1 [DKB-476-065] | –
7 | > 10 µM | – | – | – | C[C@@H]1O[C@@H](OC[C@H]2O[C@@H](Oc3c(-c4ccc(O)c(O)c4)oc4cc(O)cc(O)c4c3=O)[C@H](O)[C@@H](O)[C@@H]2O)[C@H](O)[C@H](O)[C@H]1O [Rutin, reference compound] | –

The remaining lines, values behind:

Row | SMILES | IC50 (AKR1C3 [1]) | inhibition at 10 µM (AKR1C3 [2]; [4]) | EC50 (ER-beta; agonist mode) | inhibition at 10 µM (AKR1C3 [2]; [7]) | further results
8 | COc1cc(C=CC(=O)O)cc(OC)c1OC [3,4,5 trimethoxy cinnamic acid, reference compound] | > 10 µM | – | – | – | –
9 | O=c1c2ccc(O)cc2c(-c2ccccc2)cn1-c1ccc(O)cc1 [Compound 15a, 6-hydroxy-2-(4-hydroxyphenyl)-4-phenylisoquinolin-1(2H)-one] | 16.1 µM | 0% | > 10 µM | – | Ki (ER-β): 130 nM; HLM Phase I T-1/2 ([3]; HLM Phase I): 152.8 min; HLM Phase I + II T-1/2 ([3]; HLM Phase I + II): 23.3 min; microsomal CLint [3, 5]: 29.7 µL/min/mg; microsomal CLint [3, 6]: 4.5 µL/min/mg; IC50 (ER-beta): 0.918 µM
10 | COc1ccc(-c2cn(-c3ccc(O)cc3)c(=O)c3c(O)cc(O)cc23)cc1 [Compound 15g, 6,8-dihydroxy-2-(4-hydroxyphenyl)-4-(4-methoxyphenyl)isoquinolin-1(2H)-one] | 4.52 µM | 40% | > 10 µM | – | Ki (ER-β): 2.77 nM; HLM Phase I CLint ([3]; HLM Phase I): 35.8 µL/min/mg; HLM Phase I T-1/2 ([3]; HLM Phase I): 16.5 min and 19.32 min; HLM Phase I + II T-1/2 ([3]; HLM Phase I + II): 1.6 min; microsomal CLint [3, 5]: 422 µL/min/mg; microsomal CLint [3, 6]: 42.1 µL/min/mg; IC50 (ER-beta): 0.0224 µM
11 | C/C=C/c1cn(-c2ccc(O)cc2)c(=O)c2c(O)cc(O)cc12 [Compound 15i] | – | 10% | > 10 µM | – | Ki (ER-β): 1.66 nM; EC50 (ER-alpha): > 10 µM; IC50 (ER-alpha; antagonist mode): 1.97 µM and 1.79 µM; IC50 (ER-beta): 0.0322 µM and 0.0663 µM
12 | COc1ccc2c(=O)n(-c3ccc(CO)c(OC)c3)cc(-c3ccc(C(F)(F)F)cc3)c2c1 [Compound 25, 2-(4-(hydroxymethyl)-3-methoxyphenyl)-6-methoxy-4-(4-(trifluoromethyl)phenyl)isoquinolin-1(2H)-one] | – | – | – | 0% | –
13 | CNS(=O)(=O)c1ccc(-c2cn(-c3ccc(O)cc3)c(=O)c3ccc(O)cc23)cc1 [Compound 36, 4-(6-hydroxy-2-(4-hydroxyphenyl)-1-oxo-1,2-dihydroisoquinolin-4-yl)-N-methylbenzenesulfonamide] | – | 20% | > 10 µM | 20% | EC50 (ER-alpha): > 10 µM; IC50 (ER-alpha; antagonist mode): > 10 µM
14 | CS(=O)(=O)c1ccc(-c2cn(-c3ccc(O)cc3)c(=O)c3ccc(O)cc23)cc1 [Compound 37, 6-hydroxy-2-(4-hydroxyphenyl)-4-(4-(methylsulfonyl)phenyl)isoquinolin-1(2H)-one] | – | 45% | > 10 µM | 45% | HLM Phase I T-1/2 (min) ([3]; HLM Phase I): stable; HLM Phase I + II T-1/2 ([3]; HLM Phase I + II): 3.8 min; microsomal CLint [3, 5]: 183 µL/min/mg; EC50 (ER-alpha): > 10 µM; IC50 (ER-alpha; antagonist mode): > 10 µM
15 | O=C(O)c1ccc(-c2cn(-c3ccc(O)cc3)c(=O)c3ccc(O)cc23)cc1 [Compound 43, 4-(6-hydroxy-2-(4-hydroxyphenyl)-1-oxo-1,2-dihydroisoquinolin-4-yl)benzoic acid] | – | 42% | > 10 µM | 42% | EC50 (ER-alpha): > 10 µM; IC50 (ER-alpha; antagonist mode): > 10 µM; IC50 (ER-beta): > 10 µM
16 | O=c1c2ccc(O)cc2c(-c2cc(F)c(F)c(F)c2)cn1-c1ccc(O)cc1 [Compound 79, 6-hydroxy-2-(4-hydroxyphenyl)-4-(3,4,5-trifluorophenyl)isoquinolin-1(2H)-one] | – | 44% | – | 44% | Agonist ER-α, % of E2 (ER-alpha; @1000 nM): 32.6% of E2 @1000 nM; Antagonist ER-α, % of E2 (ER-alpha; antagonist mode, @10k nM): 51% of E2 @10k nM; Agonist ER-β, % of E2 (ER-beta; agonist mode, @1000 nM): 45.0% of E2 @1000 nM; Antagonist ER-β, % of E2 (ER-beta; @10k nM): 45.3% of E2 @10k nM
17 | N#Cc1cc(O)cc2c(-c3cc(F)c(F)c(F)c3)cn(-c3ccc(O)cc3)c(=O)c12 [Compound 85, 6-hydroxy-2-(4-hydroxyphenyl)-1-oxo-4-(3,4,5-trifluorophenyl)-1,2-dihydroisoquinoline-8-carbonitrile] | 0.141 µM | 86% | > 10 µM | 86% | Agonist ER-α, % of E2 (ER-alpha; @10k nM): 36.5% of E2 @10k nM; IC50 (ER-alpha; antagonist mode): > 10 µM; Antagonist ER-β, % of E2 (ER-beta; @1000 nM): 59.7% of E2 @1000 nM
18 | COC(=N)c1cc(O)cc2c(-c3cc(F)c(F)c(F)c3)cn(-c3ccc(O)cc3)c(=O)c12 [Compound 100, Methyl 6-hydroxy-2-(4-hydroxyphenyl)-1-oxo-4-(3,4,5-trifluorophenyl)-1,2-dihydroisoquinoline-8-carbimidate] | – | 20% | – | 20% | –
19 | NC(=O)c1cc(O)cc2c(-c3cc(F)c(F)c(F)c3)cn(-c3ccc(O)cc3)c(=O)c12 [Compound 100A, 6-hydroxy-2-(4-hydroxyphenyl)-1-oxo-4-(3,4,5-trifluorophenyl)-1,2-dihydroisoquinoline-8-carboxamide] | – | 0% | – | 0% | –
